Publication PMC12155096 (International Journal of Molecular Sciences, 2025)
Structures can show the parent of a compound that is named as a salt. Where two headings read alike, the source gives them in different places.

Assays:
human CYP2C19 [1] = molecular target: T1, human CYP2C19 (Homo sapiens, UniProt P33261); assay: biochemical
human CYP1A2 [2] = molecular target: T2, human CYP1A2 (Homo sapiens, UniProt P05177); assay: biochemical
T2 sequence (P05177 1-516): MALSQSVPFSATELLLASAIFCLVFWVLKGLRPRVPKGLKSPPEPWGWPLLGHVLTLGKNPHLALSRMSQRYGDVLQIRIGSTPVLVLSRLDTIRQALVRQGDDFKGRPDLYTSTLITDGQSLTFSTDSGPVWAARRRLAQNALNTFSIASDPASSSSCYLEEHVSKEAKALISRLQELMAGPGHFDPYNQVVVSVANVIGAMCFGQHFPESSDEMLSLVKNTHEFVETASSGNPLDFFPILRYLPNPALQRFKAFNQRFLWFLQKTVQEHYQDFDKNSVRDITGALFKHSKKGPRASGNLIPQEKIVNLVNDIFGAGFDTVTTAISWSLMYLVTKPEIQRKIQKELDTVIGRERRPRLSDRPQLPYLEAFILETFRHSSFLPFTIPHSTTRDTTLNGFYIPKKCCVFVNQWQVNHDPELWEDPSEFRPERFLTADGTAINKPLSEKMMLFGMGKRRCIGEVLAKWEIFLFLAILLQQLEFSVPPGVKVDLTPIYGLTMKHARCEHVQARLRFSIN

human CYP2C9 [3] = molecular target: T3, human CYP2C9 (Homo sapiens, UniProt P11712); assay: biochemical
human CYP2D6 = human CYP2D6 (Homo sapiens, UniProt P10635)
CYP3A4 = CYP3A4 (Homo sapiens, UniProt P08684)
human CYP2C19 [4] = molecular target: T1, human CYP2C19
human CYP1A2 [5] = molecular target: T2, human CYP1A2
human CYP2C9 [6] = molecular target: T3, human CYP2C9; details: human
[7] = CYP1A2 AC50 (half-maximal activity concentration)
[8] = CYP2C19 AC50 (half-maximal activity concentration)
[9] = CYP2C9 AC50 (half-maximal activity concentration)
[10] = CYP1A2 IC50 (half-maximal inhibitory concentration)
[11] = CYP2C9 IC50 (half-maximal inhibitory concentration)
[12] = CYP2C19 IC50 (half-maximal inhibitory concentration)

T1 sequence (P33261 whole entry): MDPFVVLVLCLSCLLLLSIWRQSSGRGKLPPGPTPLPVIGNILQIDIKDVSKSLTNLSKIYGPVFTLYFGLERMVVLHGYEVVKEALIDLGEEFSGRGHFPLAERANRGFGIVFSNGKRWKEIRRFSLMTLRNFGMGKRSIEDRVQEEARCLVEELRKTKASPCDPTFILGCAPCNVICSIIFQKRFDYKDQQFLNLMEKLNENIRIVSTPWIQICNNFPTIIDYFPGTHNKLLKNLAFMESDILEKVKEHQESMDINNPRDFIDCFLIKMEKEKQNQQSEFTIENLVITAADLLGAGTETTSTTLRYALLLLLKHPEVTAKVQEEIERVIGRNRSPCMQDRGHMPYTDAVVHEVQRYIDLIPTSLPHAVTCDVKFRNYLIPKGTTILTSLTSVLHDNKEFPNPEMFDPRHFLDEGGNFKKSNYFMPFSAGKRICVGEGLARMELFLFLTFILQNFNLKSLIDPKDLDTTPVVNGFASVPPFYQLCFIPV
T3 sequence (P11712 whole entry): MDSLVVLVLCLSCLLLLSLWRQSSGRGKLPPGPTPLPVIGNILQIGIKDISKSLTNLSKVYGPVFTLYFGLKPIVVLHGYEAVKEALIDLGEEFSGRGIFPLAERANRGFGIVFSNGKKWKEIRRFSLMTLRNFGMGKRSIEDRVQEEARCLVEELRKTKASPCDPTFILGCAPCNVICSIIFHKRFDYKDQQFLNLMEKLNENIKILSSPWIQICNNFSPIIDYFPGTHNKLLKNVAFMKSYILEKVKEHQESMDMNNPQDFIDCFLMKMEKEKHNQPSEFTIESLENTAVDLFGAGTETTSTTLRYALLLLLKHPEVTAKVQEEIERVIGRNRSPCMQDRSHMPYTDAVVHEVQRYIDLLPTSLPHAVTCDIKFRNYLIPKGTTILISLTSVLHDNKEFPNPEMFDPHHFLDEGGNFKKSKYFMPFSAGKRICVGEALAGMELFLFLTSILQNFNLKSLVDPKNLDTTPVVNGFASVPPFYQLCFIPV
human CYP2D6, sequence (P10635 whole entry): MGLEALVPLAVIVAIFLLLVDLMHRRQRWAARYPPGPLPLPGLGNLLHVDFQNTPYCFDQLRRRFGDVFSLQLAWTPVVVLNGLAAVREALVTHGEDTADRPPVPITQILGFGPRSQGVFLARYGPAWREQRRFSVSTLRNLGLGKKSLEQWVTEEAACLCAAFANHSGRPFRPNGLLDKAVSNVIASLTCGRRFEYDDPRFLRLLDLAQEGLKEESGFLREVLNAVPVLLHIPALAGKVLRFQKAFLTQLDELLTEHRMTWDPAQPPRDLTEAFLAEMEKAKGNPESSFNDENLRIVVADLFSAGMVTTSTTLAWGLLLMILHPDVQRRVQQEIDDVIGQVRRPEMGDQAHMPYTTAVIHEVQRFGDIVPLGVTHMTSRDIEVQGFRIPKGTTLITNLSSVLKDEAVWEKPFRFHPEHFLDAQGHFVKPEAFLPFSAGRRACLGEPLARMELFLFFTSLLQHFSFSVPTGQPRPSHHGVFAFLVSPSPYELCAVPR
CYP3A4, sequence (P08684 whole entry): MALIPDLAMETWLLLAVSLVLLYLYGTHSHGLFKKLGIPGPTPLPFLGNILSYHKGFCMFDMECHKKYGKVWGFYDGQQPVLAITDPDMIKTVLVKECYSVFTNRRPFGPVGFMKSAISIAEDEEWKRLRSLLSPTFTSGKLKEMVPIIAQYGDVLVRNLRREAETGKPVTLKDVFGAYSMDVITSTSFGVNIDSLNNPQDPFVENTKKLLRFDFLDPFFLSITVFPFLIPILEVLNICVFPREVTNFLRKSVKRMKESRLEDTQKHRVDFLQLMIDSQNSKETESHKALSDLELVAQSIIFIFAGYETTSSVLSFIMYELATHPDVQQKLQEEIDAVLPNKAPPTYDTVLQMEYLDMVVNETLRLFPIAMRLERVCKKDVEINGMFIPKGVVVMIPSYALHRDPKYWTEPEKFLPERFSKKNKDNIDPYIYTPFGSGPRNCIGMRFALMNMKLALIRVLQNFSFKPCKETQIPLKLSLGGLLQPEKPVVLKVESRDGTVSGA

O=C1c2ccccc2CCc2ccccc21 [Dibenzosuberone]
AC50 (human CYP2C19 [1]): 8.39 µM
AC50 (human CYP1A2 [2]): 1.58 µM
AC50 (human CYP2C9 [3]): 33.4 µM

CCOC(=O)c1ccccc1C(=O)OCC [Diethyl phthalate]
AC50 (human CYP1A2 [2]; [7]): 3.24 µM

C[C@]12CC[C@@H]3c4ccc(O)cc4CC[C@H]3[C@@H]1CC[C@@H]2OC(=O)CCC1CCCC1 [Estradiol cypionate]
AC50 (human CYP2C19 [1]; [8]): 26 µM
AC50 (human CYP1A2 [2]; [7]): 16.6 µM
AC50 (human CYP2C9 [3]; [9]): 16.1 µM

CC(C)OC(=O)C(C)(C)Oc1ccc(C(=O)c2ccc(Cl)cc2)cc1 [Fenofibrate]
AC50 (human CYP1A2 [2]; [7]): 19.9 µM
AC50 (human CYP2C9 [3]; [9]): 3.17 µM

O=C(O)Cc1sc(-c2ccccc2)nc1-c1ccc(Cl)cc1 [Fentiazac]
AC50 (human CYP1A2 [2]; [7]): 24 µM
AC50 (human CYP2C9 [3]; [9]): 6.24 µM

CNCCC(Oc1ccc(C(F)(F)F)cc1)c1ccccc1 (centres unmarked) [Fluoxetine hydrochloride]
IC50 (human CYP1A2 [2]; [10]): 20.9 µM
IC50 (human CYP2C9 [3]; [11]): 34.2 µM

NS(=O)(=O)c1cc2c(cc1Cl)NCNS2(=O)=O [Hydrochlorothiazide]
CYP2D6 AC50 (half-maximal activity concentration) (human CYP2D6): Inactive
CYP3A4 AC50 (half-maximal activity concentration) (CYP3A4): Inactive
CYP2C19 AC50 (half-maximal activity concentration) (human CYP2C19 [4]): Inactive

CC(C)Oc1ccc2c(=O)c(-c3ccccc3)coc2c1 [Ipriflavone]
AC50 (human CYP1A2 [2]; [7]): 11.6 µM
AC50 (human CYP2C9 [3]; [9]): 20.1 µM

Cc1cc2c(cc1S(N)(=O)=O)S(=O)(=O)CCC2 [Meticrane]
CYP2D6 AC50 (half-maximal activity concentration) (human CYP2D6): Inactive
CYP3A4 AC50 (half-maximal activity concentration) (CYP3A4): Inactive
CYP2C19 AC50 (half-maximal activity concentration) (human CYP2C19 [4]): Inactive
CYP1A2 AC50 (half-maximal activity concentration) (human CYP1A2 [5]): Inactive
AC50 (human CYP2C9 [3]): 8.15 ± 1.47 µM

CCOc1cc(N)c(Cl)cc1C(=O)NCC1CN(Cc2ccc(F)cc2)CCO1 (centres unmarked) [Mosapride citrate]
IC50 (human CYP2C19 [1]; [12]): 9 µM
IC50 (human CYP1A2 [2]; [10]): 1.14 µM

COc1ccnc2c1CCCCC2[S+]([O-])c1nc2ccccc2[nH]1 (centres unmarked) [Nepaprazole]
IC50 (human CYP2C19 [1]): 8.96 ± 4.72 µM
IC50 (human CYP1A2 [2]): 14.9 ± 0.97 µM
IC50 (human CYP2C9 [3]): 13.9 ± 1.59 µM

O=C(NOCC1CC1)c1ccc(F)c(F)c1Nc1ccc(I)cc1Cl [PD-184352]
IC50 (human CYP2C19 [1]): 0.39 ± 0.13 µM
IC50 (human CYP1A2 [2]): 14.4 ± 0.97 µM
IC50 (human CYP2C9 [3]): 0.68 ± 0.17 µM

CCC(=O)c1ccc(O)cc1 [Paroxypropione]
CYP2D6 AC50 (half-maximal activity concentration) (human CYP2D6): Inactive
CYP3A4 AC50 (half-maximal activity concentration) (CYP3A4): Inactive
CYP2C19 AC50 (half-maximal activity concentration) (human CYP2C19 [4]): Inactive
CYP1A2 AC50 (half-maximal activity concentration) (human CYP1A2 [5]): Inconclusive inhibitor
AC50 (human CYP2C9 [3]; [9]): 15.6 µM

CCCOC(=O)c1cncn1C(C)c1ccccc1 (centres unmarked) [Propoxate]
IC50 (human CYP2C19 [1]; [12]): 3.09 µM
IC50 (human CYP1A2 [2]; [10]): 18.9 µM
IC50 (human CYP2C9 [3]; [11]): 13.3 µM

Cc1cc(C)nc(NS(=O)(=O)c2ccc(N)cc2)n1 [Sulfamethazine]
CYP2D6 AC50 (half-maximal activity concentration) (human CYP2D6): Inactive
CYP3A4 AC50 (half-maximal activity concentration) (CYP3A4): Inactive
CYP2C19 AC50 (half-maximal activity concentration) (human CYP2C19 [4]): Inactive
CYP1A2 AC50 (half-maximal activity concentration) (human CYP1A2 [5]): Inconclusive inhibitor
AC50 (human CYP2C9 [3]; [9]): 54.8 µM

O=C1OC(OC(=O)c2cccnc2Nc2cccc(C(F)(F)F)c2)c2ccccc21 (centres unmarked) [Talniflumate]
AC50 (human CYP1A2 [2]): 10 ± 5.3 µM
AC50 (human CYP2C9 [3]): 5.56 ± 2.56 µM

CCCCCNC(=N)N/N=C/c1c[nH]c2ccc(OC)cc12 [Tegaserod maleate]
AC50 (human CYP1A2 [2]): 4.12 ± 0.93 µM
AC50 (human CYP2C9 [3]): 33.3 ± 14 µM

CN(C)C(=S)SC(=S)N(C)C [Tetramethylthiuram monosulfide]
AC50 (human CYP2C19 [1]; [8]): 22.8 µM
AC50 (human CYP1A2 [2]; [7]): 41.9 µM
AC50 (human CYP2C9 [3]; [9]): 24.3 µM

Cc1c(Cl)cccc1Nc1ccccc1C(=O)O [Tolfenamic acid]
AC50 (human CYP1A2 [2]; [7]): 34.8 µM
AC50 (human CYP2C9 [3]; [9]): 21 µM

Clc1ccc(C(c2ccc(Cl)cc2)C(Cl)(Cl)Cl)cc1 [p,p'-DDT]
IC50 (human CYP2C19 [1]; [12]): 0.04 µM
IC50 (human CYP1A2 [2]; [10]): 9.36 µM
CYP2C19 Efficacy (in parenthesis) (human CYP2C19 [4]; human): 0.04 ± 0.02 (-132 ± 4) %
CYP1A2 Efficacy (in parenthesis) (human CYP1A2 [5]; human): 9.36 ± 3.19 (-74 ± 16) %
IC50 (human CYP2C9 [3]; [11]): 4.33 µM
CYP2C9 Efficacy (in parenthesis) (human CYP2C9 [6]): 4.33 ± 1.82 (-100 ± 9) %

Fc1ccc([C@@H]2CCNC[C@H]2COc2ccc3c(c2)OCO3)cc1 [paroxetine, reference compound]
IC50 (human CYP1A2 [2]; [10]): 15.2 µM

c1ccc2[nH]c(-c3cscn3)nc2c1 [thiabendazole, reference compound]
IC50 (human CYP1A2 [2]; IC50 CYP1A2 assay): 2.1 µM

CC(c1cc2ccccc2s1)N(O)C(N)=O (centres unmarked) [zileuton, reference compound]
IC50 (human CYP1A2 [2]): 5.3 µM
